Measured values taken from ChEMBL document CHEMBL2448688, “Selection and optimization of hits from a high-throughput phenotypic screen against Trypanosoma cruzi. Exported from HEOS 25-Oct-2013. See also related datasets CHEMBL3137440 and CHEMBL3137386”.
Converted amounts (≈) assume the structure as drawn. “And” between values parts separate entries of the source, which are not always exact repeats. Identical values can stand only once.

Legend:
[1] = DNDI: Cytotoxicity in vitro, against rat skeletal myoblast (L-6) cells; settings: L-6 cells (skeletal myoblasts), IC50
Trypanosoma cruzi [2] = assay: (§1) DNDI: Chagas in Vitro; assay type: functional, organism-based, Tulahuen C4 (LacZ)
Trypanosoma cruzi [3] = assay: as §1; assay type: functional, Tulahuen C4 (LacZ)
[4] = test system: Trypanosoma brucei rhodesiense; assay: DNDI: HAT in Vitro; assay type: functional, organism-based, ATCC 30027; settings: Trypanosoma brucei, ATCC 30027
[5] = DNDI: Solubility in phosphate buffer at pH 6.5 determined by nephelometry; settings: phosphate buffer, pH 6.5, Kinetic
[6] = DNDI: Lipophilicity (gLogD) at pH 3; settings: buffer, pH 3, logD
Cytochrome P450 3A4 = Cytochrome P450 3A4 (Homo sapiens, UniProt P08684); assay: DNDI: Human CYP3A4 inhibition determined using 6b-hydroxylation of testosterone
Chain of Cytochrome P450 3A4 (P08684 whole entry): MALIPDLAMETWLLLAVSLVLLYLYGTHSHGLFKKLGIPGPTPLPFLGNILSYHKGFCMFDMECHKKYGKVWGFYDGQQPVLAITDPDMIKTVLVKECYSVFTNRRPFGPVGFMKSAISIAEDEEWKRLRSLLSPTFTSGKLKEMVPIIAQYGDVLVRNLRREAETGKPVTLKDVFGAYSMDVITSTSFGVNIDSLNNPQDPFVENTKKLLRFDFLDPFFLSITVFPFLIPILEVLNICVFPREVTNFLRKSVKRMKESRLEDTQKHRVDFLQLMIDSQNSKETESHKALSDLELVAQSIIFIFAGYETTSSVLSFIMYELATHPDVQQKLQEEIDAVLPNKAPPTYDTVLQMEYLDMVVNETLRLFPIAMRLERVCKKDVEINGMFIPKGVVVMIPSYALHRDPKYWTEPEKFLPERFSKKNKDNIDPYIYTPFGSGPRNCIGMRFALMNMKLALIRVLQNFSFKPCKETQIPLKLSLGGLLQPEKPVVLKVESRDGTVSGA

[7] = DNDI: Solubility in 0.01M HCl at pH 2 determined by nephelometry; settings: 0.01M HCl, pH 2, Kinetic
in vitro [8] = settings: human, microsomes, t (1 / 2)
[9] = DNDI: Lipophilicity (gLogD) at pH 7.4; settings: buffer, pH 7.4, logD
in vitro [10] = settings: human, microsomes, EH
in vitro [11] = settings: human, microsomes
[12] = Trypanosoma cruzi, Tulahuen C4 (LacZ)

Row | SMILES | IC50 [1] [µM] | IC50 (Trypanosoma cruzi [2]) | IC50 (Trypanosoma cruzi [2]; [12]) [µM] | IC90 (Trypanosoma cruzi [3]) | IC90 (Trypanosoma cruzi [3]; [12]) [µM] | IC50 [4] [µM] | solubility kinetic [5] [µg/mL] | chromatographic logD [6] | IC50 (Cytochrome P450 3A4) [µM] | solubility kinetic [7] [µg/mL] | half-life (in vitro [8]) [min] | chromatographic logD [9] | hepatic extraction ratio (in vitro [10]) | microsomal CLint (in vitro [11]) [µL/min/mg]
1 | CO/N=C(\C)c1ccc(-n2ccnc2)c(NC(=O)c2cc(-c3ccccc3)cs2)c1 | > 100 |  |  |  |  |  |  |  |  |  |  |  |  | 
2 | CC(=O)N(Cc1cnc[nH]1)c1cc(F)cc(-c2nc3ccccc3s2)c1 | > 100 | 0.534 µM | 0.486 | > 1 µM | 0.941 |  |  |  |  |  |  |  |  | 
3 | CS(=O)(=O)c1ccc(-n2ccnc2)c(NC(=O)c2cnc(-c3ccccc3)s2)c1 | > 100 |  | 0.0597 |  | > 0.1 |  |  |  |  |  |  |  |  | 
4 | CO/N=C(\C)c1ccc(-n2ccnc2)c(NC(=O)c2ccc(-c3ccccn3)cc2)c1 | > 100 |  | > 1 |  | > 1 |  |  |  |  |  |  |  |  | 
5 | CCN(Cc1cccnc1)c1cccc(-c2nc3ccccc3s2)c1 | 41.9 |  |  |  |  | > 10 | < 1.6 | 4.1 | 1 | > 100 | 11 | 4.9 | 0.86 | 159
6 | Cc1ccc(-n2ccnc2)c(NC(=O)c2cnc(-c3ccccc3)s2)c1 | 86.6 |  | 0.00198 |  | 0.015 |  |  | 1.8 |  | > 100 | 16 | 3 |  | 109
7 | CC(=O)N(Cc1c[nH]cn1)c1ccc(-c2ccc(F)cc2)cc1F | 69.9 |  |  |  |  |  |  |  |  |  |  |  |  | 
8 | CO/N=C(\C)c1ccc(-n2ccnc2)c(NC(=O)c2ccc(-c3cccs3)nc2)c1 | > 100 |  | 0.0027 |  | 0.0095 |  |  | 2.4 | 1.4 | > 100 | 17 | 3.2 | 0.8 | 102
9 | O=C(C1CC1)N(Cc1cccnc1)c1cc(F)cc(-c2nc3ccccc3s2)c1 | 76.9 |  | 0.02 |  | 0.0625 |  | 6.65 (≈ 16.5 µM) | 3.04 |  | 66.9 (≈ 166 µM) | 1.3 | 4.49 |  | 1320
10 | CS(=O)(=O)N(Cc1cccnc1)c1ccc(-c2ccc(F)cc2)cc1F |  | 0.001 µM | 0.002 | 0.0146 µM and 0.006 µM |  |  | 8.62 (≈ 23 µM) | 1.89 | 0.612 | > 74.9 | 7.9 | 3.18 | 0.916 | 218
11 | O=C(C1CC1)N(Cc1cccnc1)c1cccc(-c2nc3ccccc3s2)c1 | 60.6 |  | 0.029 |  | > 0.1 | > 10 |  | 3.4 |  | > 100 | 5 | 4 |  | 380
12 | CCN(Cc1cccnc1)c1ccc(-c2ccc(F)cc2)cc1F | 56.3 |  | 0.017 |  | 0.0825 |  | < 0.32 | 3.49 | 1 | 59.5 (≈ 183 µM) | 21.5 | > 4.5 | 0.799 | 80.5
13 | CN(C)S(=O)(=O)c1ccc(-n2ccnc2)c(NC(=O)c2cnc(-c3ccccc3)s2)c1 | > 100 |  | 0.013 |  | 0.087 | > 10 |  | 2.4 | 10 | > 100 | 22 | 3 | 0.75 | 79
14 | O=C(NCCc1cnc[nH]1)c1cnc(-c2ccccc2)cn1 |  |  |  |  |  | > 10 |  | 1.3 | 16 | > 100 | > 250 | 2.1 | < 0.23 | < 7
15 | CCN(Cc1cnc[nH]1)c1cc(F)cc(-c2nc3ccccc3s2)c1 |  | 0.048 µM | 0.051 | 0.051 µM and 0.11 µM |  |  | 3.1 (≈ 8.8 µM) | 1.98 | 0.576 | > 70.5 | 12.4 | 4.67 | 0.874 | 138
16 | O=C(NCCc1cnc[nH]1)c1ccc2cc(Br)ccc2c1 | 59.7 |  | 0.186 |  | > 1 | > 10 | 48.2 (≈ 140 µM) |  | 3.28 | 64.3 (≈ 187 µM) | 105 |  |  | 16.5
17 | CO/N=C(\C)c1ccc(-n2ccnc2)c(NC(=O)c2sc(-c3ccccc3)nc2C)c1 | > 100 |  | 0.0675 |  | 0.204 |  |  | 2.3 |  | > 100 | 97 | 3.5 |  | 18
18 | O=C(Nc1ccccc1-n1ccnc1)c1cnc(-c2ccccc2)s1 |  | 0.0032 µM and 0.0038 µM | 0.0049 |  | 0.01 |  |  |  |  |  |  |  |  | 
19 | CC(C)Cc1ccc(-n2ccnc2)c(NC(=O)c2cnc(-c3ccccc3)s2)c1 |  | 0.00022 µM and 0.0002 µM and 0.00019 µM | < 0.00014 |  |  |  | < 1.6 | 2.8 |  | > 100 | 11 | 3.9 |  | 157
20 | CS(=O)(=O)N(Cc1cccnc1)c1ccc(-c2nc3ccccc3s2)cc1 | > 100 |  | 0.0405 |  | 0.091 |  |  |  |  |  |  |  |  | 
21 | CCS(=O)(=O)N(Cc1cccnc1)c1cncc(-c2nc3ccccc3s2)c1 | > 100 |  | 0.0135 |  | 0.355 |  | 13 (≈ 31.8 µM) | 1.89 | 1.04 | > 82.1 | 3.1 | 3.19 | 0.965 | 559
22 | CCN(Cc1cccnc1)c1ccc(-c2nc3ccccc3s2)cc1 | 54.5 |  | 0.351 |  | 0.632 |  |  |  |  |  |  |  |  | 
23 | NCC(=O)N(Cc1cccnc1)c1ccc(-c2nc3ccccc3s2)cc1 |  |  | 0.017 | 0.064 µM and 0.625 µM |  |  |  |  |  |  |  |  |  | 
24 | O=C(NCCc1c[nH]cn1)c1ccc(-c2ccccc2)cc1 | > 100 |  | 0.305 |  |  |  |  |  |  |  |  |  |  | 
25 | CCN(Cc1cccnc1)c1cc(F)cc(-c2nc3ccccc3s2)c1 | 57.7 |  | 0.047 |  | 0.098 |  | < 0.36 | 3.75 | 0.775 | 57.2 (≈ 157 µM) | 9.7 | > 4.5 | 0.898 | 179
26 | O=C(C1CC1)N(Cc1cccnc1)c1cncc(-c2nc3ccccc3s2)c1 |  |  | 0.0129 |  | 0.034 |  |  |  |  |  |  |  |  | 
27 | CCS(=O)(=O)N(Cc1cccnc1)c1cccc(-c2nc3ccccc3s2)c1 | > 100 |  | 0.023 |  | 0.0585 | > 10 |  | 3.2 | < 0.25 | > 100 | 5 | 3.6 | 0.93 | 346
28 | CC(=O)N(Cc1cccnc1)c1ccc(-c2ccc(F)cc2)cc1F |  |  | 0.0535 |  | 0.183 |  |  |  |  |  |  |  |  | 
